# Biological target: 5-hydroxytryptamine receptor 6 (Rattus norvegicus) (UniProt P31388)
# Test: Displacement of [3H]-LSD from rat 5-Ht6 receptor expressed in HEK cells at 10 uM after 60 mins by liquid scintillation counting
# Format: cell-based
# Settings: HEK293
# Chain of 5-hydroxytryptamine receptor 6 (Rattus norvegicus) (P31388 whole entry): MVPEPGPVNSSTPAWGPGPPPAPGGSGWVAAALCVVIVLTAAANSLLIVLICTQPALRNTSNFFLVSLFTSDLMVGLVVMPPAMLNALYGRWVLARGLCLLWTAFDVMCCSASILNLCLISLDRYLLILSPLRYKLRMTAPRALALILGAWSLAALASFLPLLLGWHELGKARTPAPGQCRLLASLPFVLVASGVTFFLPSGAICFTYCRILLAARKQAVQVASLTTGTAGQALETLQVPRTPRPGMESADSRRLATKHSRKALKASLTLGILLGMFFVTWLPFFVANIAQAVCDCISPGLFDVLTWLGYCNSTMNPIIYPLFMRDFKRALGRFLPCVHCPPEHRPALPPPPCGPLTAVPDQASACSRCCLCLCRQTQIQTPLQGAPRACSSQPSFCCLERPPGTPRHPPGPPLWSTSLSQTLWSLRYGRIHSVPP
Compound,inhibition [%],log(%)
CC(C)(C)NC(=O)C(c1ccc(Br)cc1)N1CCc2c([nH]c3ccccc23)CC1=O (stereo not drawn),66,1.82
CC(C)(C)NC(=O)C(C1CCCCC1)N1CCc2c([nH]c3ccccc23)CC1=O (stereo not drawn),10,1
Cc1cccc(C)c1-n1nnnc1C(C1CCCCC1)N1CCc2c([nH]c3ccccc23)CC1=O (stereo not drawn),3,0.48
Cc1cccc(C)c1-n1nnnc1C(c1ccc(Cl)cc1)N1CCc2c([nH]c3ccccc23)CC1=O (stereo not drawn),19,1.28
CC(C)(C)n1nnnc1C(C1CCCCC1)N1CCc2c([nH]c3ccccc23)CC1=O (stereo not drawn),2,0.3
Cc1cccc(C)c1NC(=O)C(c1ccc(Cl)cc1)N1CCc2c([nH]c3ccccc23)CC1=O (stereo not drawn),21,1.32
CC(C)(C)n1nnnc1C(c1ccc2c(c1)OCO2)N1CCc2c([nH]c3ccccc23)CC1=O (stereo not drawn),12,1.08
Cc1cccc(C)c1NC(=O)C(C1CCCCC1)N1CCc2c([nH]c3ccccc23)CC1=O (stereo not drawn),7,0.85
O=C(NC1CCCCC1)C(c1ccc(Cl)cc1)N1CCc2c([nH]c3ccccc23)CC1=O (stereo not drawn),15,1.18
COc1cccc(C(C(=O)NC(C)(C)C)N2CCc3c([nH]c4ccccc34)CC2=O)c1OC (stereo not drawn),,1.98
CC(C)(C)n1nnnc1C(c1ccc(Br)cc1)N1CCc2c([nH]c3ccccc23)CC1=O (stereo not drawn),57,1.76
CC(C)(C)n1nnnc1C(c1ccc(Cl)cc1)N1CCc2c([nH]c3ccccc23)CC1=O (stereo not drawn),41,1.04
CC(C)(C)NC(=O)C(c1ccc2c(c1)OCO2)N1CCc2c([nH]c3ccccc23)CC1=O (stereo not drawn),7,0.85
CN(C)c1ccc(C(C(=O)NC(C)(C)C)N2CCc3c([nH]c4ccccc34)CC2=O)cc1 (stereo not drawn),16,1.2
CSc1ccc2c(c1)C(N1CCN(C)CC1)Cc1ccccc1S2 (stereo not drawn),100,2
COc1cccc(C(c2nnnn2C(C)(C)C)N2CCc3c([nH]c4ccccc34)CC2=O)c1OC (stereo not drawn),16,1.2
CC(C)(C)NC(=O)C(c1ccc(Cl)cc1)N1CCc2c([nH]c3ccccc23)CC1=O (stereo not drawn),42,1.62
CN(C)c1ccc(C(c2nnnn2C(C)(C)C)N2CCc3c([nH]c4ccccc34)CC2=O)cc1 (stereo not drawn),1,0
O=C1Cc2[nH]c3ccccc3c2CCN1C(c1ccc(Cl)cc1)c1nnnn1C1CCCCC1 (stereo not drawn),17,1.23

# Biological target: 5-hydroxytryptamine receptor 6 (Rattus norvegicus, UniProt P31388)
# Test: Displacement of [3H]-LSD from rat 5-Ht6 receptor expressed in HEK cells after 60 mins by liquid scintillation counting
# Format: cell-based, HEK293
# Settings: not given
# Chain of 5-hydroxytryptamine receptor 6 (P31388 whole entry): as above
row,Compound,Ki [nM]
1,COc1cccc(C(C(=O)NC(C)(C)C)N2CCc3c([nH]c4ccccc34)CC2=O)c1OC (stereo not drawn),211
